For the assay, the system named is HIV-1 (H9IIIB strain). Kind of assay: Cell-Based HIV Infection Assay Using a Reporter (MT4-GFP cells). The conditions noted are these: Human immunodeficiency virus 1, inflection point (IP) of viral growth inhibition; MT4-GFP cells infected with HIV-1 H9IIIB; 50% normal human serum; mean of at least two independent experiments; read-out: Cell Based IP (50% NHS). In short, it runs like this:
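Inflection point from a 4-parameter curve of % viral growth inhibition, normalised to DMSO and triple-drug controls, using the 48 h/24 h ratio of GFP-positive cells (R0). MT4-GFP cells pre-infected 24 h with HIV-1 H9IIIB at low MOI; compounds tested in 50% normal human serum, 0.4% DMSO; mean of ≥2 experiments.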
`N[C@H](C(=O)Nc1cccc(F)c1CCC1CNC2CCCS(=O)(=O)N1C2)[C@H](c1cncc(C(F)(F)F)c1)c1ccc(Cl)c(F)c1` (stereo partly drawn) [Example 227, (βS)-4-Chloro-N-{2-[2-(2,2-dioxido-2-thia-1,7-diazabicyclo[4.3.1]dec-9-yl)ethyl]-3-fluorophenyl}-3-fluoro-β-[5-(trifluoromethyl)pyridin-3-yl]-L-phenylalaninamide]: the EC50 was 7.1 nM. For the compound `COC(=O)N[C@H](C(=O)Nc1ccc(F)c(F)c1CC[C@H]1CN[C@@H]2CCCS(=O)(=O)N1C2)[C@@H](c1ccc(F)cc1)C1C[C@@H](C)O[C@@H](C)C1` (stereo partly drawn) [Example 228, Methyl [(1S,2R)-2-[(2R,6S)-2,6-dimethyltetrahydro-2H-pyran-4-yl]-1-[(2-{2-[(6R,9S)-2,2-dioxido-2-thia-1,7-diazabicyclo[4.3.1]dec-9-yl]ethyl}-3,4-difluorophenyl)carbamoyl]-2-(4-fluorophenyl)ethyl]carbamate], the EC50 worked out at 10 nM.

On to `COC(=O)CCCN[C@H](C(=O)N[C@H]1CCC[C@@H]1CC[C@H]1CN[C@@H]2CCCS(=O)(=O)N1C2)[C@@H](c1ccc(Cl)cc1)C1CCOC(C)(C)C1` (stereo partly drawn) [Example 229, methyl 4-{[(1S,2R)-2-(4-chlorophenyl)-2-(2,2-dimethyltetrahydro-2H-pyran-4-yl)-1-{[(1S,2R)-2-{2-[(6R,9S)-2,2-dioxido-2-thia-1,7-diazabicyclo[4.3.1]dec-9-yl]ethyl}cyclopentyl]carbamoyl}ethyl]amino} butanoate], for which the EC50 was determined as 210 nM. In the case of `CC1(C)CC([C@H](c2ccc(Cl)cc2)[C@H](NCCOCc2ccccc2)C(=O)N[C@H]2CCC[C@@H]2CC[C@H]2CN[C@@H]3CCCS(=O)(=O)N2C3)CCO1` (stereo partly drawn) [Example 230, (βR)-Nα-[2-(benzyloxy)ethyl]-4-chloro-β-(2,2-dimethyltetrahydro-2H-pyran-4-yl)-N-[(1S,2R)-2-{2-[(6R,9S)-2,2-dioxido-2-thia-1,7-diazabicyclo[4.3.1]dec-9-yl]ethyl}cyclopentyl]-L-phenylalaninamide], the EC50 was determined as 310 nM. The figure for `CC1(C)CC([C@H](c2ccc(Cl)cc2)[C@H](NCCO)C(=O)N[C@H]2CCC[C@@H]2CC[C@H]2CN[C@@H]3CCCS(=O)(=O)N2C3)CCO1` (stereo partly drawn) [Example 231, (βR)-4-chloro-β-(2,2-dimethyltetrahydro-2H-pyran-4-yl)-N-[(1S,2R)-2-{2-[(6R,9S)-2,2-dioxido-2-thia-1,7-diazabicyclo[4.3.1]dec-9-yl]ethyl}cyclopentyl]-Nα-(2-hydroxyethyl)-L-phenylalaninamide] is 310 nM; for `CC1(C)CC([C@H](c2ccc(Cl)cc2)[C@H](NC(=O)CN)C(=O)N[C@H]2CCC[C@@H]2CC[C@H]2CN[C@@H]3CCCS(=O)(=O)N2C3)CCO1` (stereo partly drawn) [Example 232, glycyl-(βR)-4-chloro-β-(2,2-dimelhyltetrahydro-2H-pyran-4-yl)-N-[(1S,2R)-2-{2-[(6R,9S)-2,2-dioxido-2-thia-1,7-diazabicyclo[4.3.1]dec-9-yl]ethyl}cyclopentyl]-L-phenylalaninamide] it is 2500 nM.

Consider `N[C@H](C(=O)Nc1cncc(F)c1CC[C@H]1CN[C@@H]2CCCS(=O)(=O)N1C2)C1(c2ccc(Cl)cc2)CCOCC1` [Example 233, (2S)-2-amino-2-[4-(4-chlorophenyl)tetrahydro-2H-pyran-4-yl]-N-(4-{2-[(6R,9S)-2,2-dioxido-2-thia-1,7-diazabicyclo[4.3.1]dec-9-yl]ethyl}-5-fluoropyridin-3-yl)ethanamide], for which the EC50 amounted to 67 nM. `N[C@H](C(=O)Nc1cncc(F)c1CC[C@H]1CN[C@@H]2CCCS(=O)(=O)N1C2)[C@H](c1cncc(F)c1)c1ccc(Cl)c(F)c1` [Example 234, (βS)-4-chloro-N-(4-{2-[(6R,9S)-2,2-dioxido-2-thia-1,7-diazabicyclo[4.3.1]dec-9-yl]ethyl}-5-fluoropyridin-3-yl)-3-fluoro-β-(5-fluoropyridin-3-yl)-L-phenylalaninamide]: the EC50 was 50 nM. The figure for `CO[C@H]1CC[C@](c2ccc(F)cc2)([C@H](N)C(=O)Nc2cncc(F)c2CC[C@H]2CN[C@@H]3CCCS(=O)(=O)N2C3)CC1` [Example 235, (2S)-2-amino-N-(4-{2-[(6R,9S)-2,2-dioxido-2-thia-1,7-diazabicyclo[4.3.1]dec-9-yl]ethyl}-5-fluoropyridin-3-yl)-2-[trans-1-(4-fluorophenyl)-4-methoxycyclohexyl]ethanamide] is 67 nM; for `N[C@H](C(=O)Nc1cncc(F)c1CC[C@H]1CN[C@@H]2CCCS(=O)(=O)N1C2)[C@@H](c1ccc(Cl)cc1)c1cc(F)cc(F)c1` [Example 236, (βS)-β-(4-chlorophcnyl)-N-(4-{2-[(6R,9S)-2,2-dioxido-2-thia-1,7-diazabicyclo[4.3.1]dec-9-yl]ethyl}-5-fluoropyridin-3-yl)-3,5-difluoro-L-phenylalaninamide] it is 2.8 nM. The figure for `CC1(C)CC([C@H](c2ccc(Cl)cc2)[C@H](NC(=O)C(C)(C)N)C(=O)N[C@H]2CCC[C@@H]2CC[C@H]2CN[C@@H]3CCCS(=O)(=O)N2C3)CCO1` (stereo partly drawn) [Example 237, 2-methylalanyl-(βR)-4-chloro-β-(2,2-dimethyltetrahydro-2H-pyran-4-yl)-N-[(1S,2R)-2-{2-[(6R,9S)-2,2-dioxido-2-thia-1,7-diazabicyclo[4.3.1]dec-9-yl]ethyl}cyclopentyl]-L-phenylalaninamide] is 150 nM. Next, `CC(C)[C@H](c1ccc(Cl)cc1)[C@H](N)C(=O)Nc1cncc(F)c1CC[C@H]1CN[C@@H]2CCCS(=O)(=O)N1C2` [Example 238, (2S,3R)-2-amino-3-(4-chlorophenyl)-N-(4-(2-((6R,9S)-2,2-dioxido-2-thia-1,7-diazabicyclo[4.3.1]decan-9-yl)ethyl)-5-fluoropyridin-3-yl)-4-methylpentanamide]: 13 nM; `CO[C@H]1CC[C@H]([C@H](c2ccc(Cl)cc2)[C@H](N)C(=O)Nc2cncc(F)c2CC[C@H]2CN[C@@H]3CCCS(=O)(=O)N2C3)CC1` [Example 239, (2S,3R)-2-amino-3-(4-chlorophenyl)-N-(4-(2-((6R,9S)-2,2-dioxido-2-thia-1,7-diazabicyclo[4.3.1]decan-9-yl)ethyl)-5-fluoropyridin-3-yl)-3-((1r,4R)-4-methoxycyclohexyl)propanamide]: 5.6 nM. As for `N[C@H](C(=O)Nc1cncc(F)c1CC[C@H]1CN[C@@H]2CCCS(=O)(=O)N1C2)[C@@H](c1ccc(Cl)cc1)C1CCC(F)(F)CC1` [Example 241, (2S,3R)-2-amino-3-(4-chlorophenyl)-3-(4,4-difluorocyclohexyl)-N-(4-(2-((6R,9S)-2,2-dioxido-2-thia-1,7-diazabicyclo[4.3.1]decan-9-yl)ethyl)-5-fluoropyridin-3-yl)propanamide], the EC50 turned out to be 7.3 nM. The figure for `CCC(CC)[C@H](c1ccc(Cl)cc1)[C@H](N)C(=O)Nc1cncc(F)c1CC[C@H]1CN[C@@H]2CCCS(=O)(=O)N1C2` [Example 242, (2S,3R)-2-amino-3-(4-chlorophenyl)-N-(4-(2-((6R,9S)-2,2-dioxido-2-thia-1,7-diazabicyclo[4.3.1]decan-9-yl)ethyl)-5-fluoropyridin-3-yl)-4-ethylhexanamide] is 17 nM. The figure for `CC1(C)C[C@@H]([C@H](c2ccc(Cl)c(F)c2)[C@H](N)C(=O)Nc2cncc(F)c2CC[C@H]2CN[C@@H]3CCCS(=O)(=O)N2C3)CCO1` [Example 243, (2S,3R)-2-amino-3-(4-chloro-3-fluorophenyl)-3-((S)-2,2-dimethyltetrahydro-2H-pyran-4-yl)-N-(4-(2-((6R,9S)-2,2-dioxido-2-thia-1,7-diazabicyclo[4.3.1]decan-9-yl)ethyl)-5-fluoropyridin-3-yl)propanamide] is 8 nM. On to `N[C@H](C(=O)Nc1cncc(F)c1CC[C@H]1CN[C@@H]2CCCS(=O)(=O)N1C2)[C@@H](c1ccc(Cl)c(F)c1)C1CCCCC1` [Example 244, (2S,3R)-2-amino-3-(4-chloro-3-fluorophenyl)-3-cyclohexyl-N-(4-(2-((6R,9S)-2,2-dioxido-2-thia-1,7-diazabicyclo[4.3.1]decan-9-yl)ethyl)-5-fluoropyridin-3-yl)propanamide], for which the EC50 was 4.3 nM.

On to `C[C@@H]1CC([C@H](c2ccc(Cl)c(F)c2)[C@H](N)C(=O)Nc2cncc(F)c2CC[C@H]2CN[C@@H]3CCCS(=O)(=O)N2C3)C[C@H](C)O1` (stereo partly drawn) [Example 245, (2S,3R)-2-amino-3-(4-chloro-3-fluorophenyl)-3-((2R,6S)-2,6-dimethyltetrahydro-2H-pyran-4-yl)-N-(4-(2-((6R,9S)-2,2-dioxido-2-thia-1,7-diazabicyclo[4.3.1]decan-9-yl)ethyl)-5-fluoropyridin-3-yl)propanamide], for which the EC50 stood at 5.8 nM.

As for `CC(F)(F)c1ccc([C@H](c2ccc(Cl)cc2)[C@H](N)C(=O)Nc2cncc(F)c2CC[C@H]2CN[C@@H]3CCCS(=O)(=O)N2C3)cn1` [Example 246, (2S,3R)-2-amino-3-(4-chlorophenyl)-3-(6-(1,1-difluoroethyl)pyridin-3-yl)-9-(4-(2-((6R,9S)-2,2-dioxido-2-thia-1,7-diazabicyclo[4.3.1]decan-9-yl)ethyl)-5-fluoropyridin-3-yl)propanamide], the EC50 amounted to 19 nM. The figure for `CC(C)Oc1ncc([C@H](c2ccc(Cl)cc2)[C@H](N)C(=O)Nc2cccc(F)c2CC[C@H]2CN[C@@H]3CCCS(=O)(=O)N2C3)cn1` [Example 247, (βS)-4-chloro-N-(2-{2-[(6R,9S)-2,2-dioxido-2-thia-1,7-diazabicyclo[4.3.1]dec-9-yl]ethyl}-3-fluorophenyl)-β-[2-(1-methylethoxy)pyrimidin-5-yl]-L-phenylalaninamide] is 7.2 nM.

Source of the values: patent US10138255B2, “Piperazine derivatives as HIV protease inhibitors” (Merck Sharp & Dohme Corp., priority 2014, dated 2018).
